Test results from ChEMBL document CHEMBL6078649, “Discovery of Chalcone Derivatives as Bifunctional Molecules with Anti-SARS-CoV-2 and Anti-inflammatory Activities” (J Nat Prod, 2024).

What was measured:
[1] = test system: RAW264.7; assay: Anti-inflammatory activity against mouse RAW264.7 cells assessed as inhibition of LPS-induced NO production at 10 uM preincubated for 1 hr followed by LPS treatment measured after 24 hrs relative to control; type: functional; conditions: time 25 hrs
[2] = Cytotoxicity against mouse RAW264.7 cells assessed as cell viability at 1 uM incubated for 24 hrs by CCK8 assay relative to control; type: toxicity, cell-based; conditions: read-out: Activity
[3] = target: Replicase polyprotein 1ab (Severe acute respiratory syndrome coronavirus 2, UniProt P0DTD1)
[4] = test system: RAW264.7; assay: Anti-inflammatory activity against mouse RAW264.7 cells assessed as inhibition of LPS-induced NO production at 1 uM preincubated for 1 hr followed by LPS treatment measured after 24 hrs relative to control; type: functional; conditions: time 25 hrs
[5] = target: Replicase polyprotein 1ab (Severe acute respiratory syndrome coronavirus 2) (UniProt P0DTD1); assay: Inhibition of SARS-CoV-2 3CLPro using DabcylKNSTLQSGLRK-Edans as substrate at 5 uM preincubated for 30 mins followed by substrate addition measured after 20 mins by FRET assay relative to control; conditions: time 50.0 min
[6] = Cytotoxicity against mouse RAW264.7 cells assessed as cell viability at 50 uM incubated for 24 hrs by CCK8 assay relative to control; type: toxicity, cell-based; conditions: read-out: Activity
[7] = target: Replicase polyprotein 1ab (Severe acute respiratory syndrome coronavirus 2) (UniProt P0DTD1); assay: Inhibition of SARS-CoV-2 3CLPro using DabcylKNSTLQSGLRK-Edans as substrate at 50 uM preincubated for 30 mins followed by substrate addition measured after 20 mins by FRET assay relative to control; conditions: time 50.0 min
[8] = Cytotoxicity against mouse RAW264.7 cells assessed as cell viability at 10 uM incubated for 24 hrs by CCK8 assay relative to control; type: toxicity, cell-based; conditions: read-out: Activity
[9] = Cytotoxicity against human Huh-7 cells harboring viral replicon/EGFP/Neo genes assessed as cell viability at 5 uM incubated for 24 hrs by Cell Titer Glo assay relative to control; type: toxicity, cell-based; conditions: read-out: Activity
[10] = Cytotoxicity against human Huh-7 cells harboring viral replicon/EGFP/Neo genes assessed as cell viability incubated for 24 hrs by Cell Titer Glo assay; type: toxicity, cell-based
[11] = Cytotoxicity against human Huh-7 cells harboring viral replicon/EGFP/Neo genes assessed as cell viability at 50 uM incubated for 24 hrs by Cell Titer Glo assay relative to control; type: toxicity, cell-based; conditions: read-out: Activity

Row | SMILES | inhibition at 10 µM [1] | viability at 24 h, 1 µM [2] | IC50 [3] | inhibition at 1 µM [4] | inhibition [5] | viability at 24 h, 50 µM [6] | inhibition [7] | viability at 24 h, 10 µM [8] | viability at 24 h, 5 µM [9] | CC50 at 24 h [10] | viability at 24 h, 50 µM [11]
1 | O=C(O)/C=C/c1c(Cl)c(O)c(O)c(O)c1Br | -6.2% | 93.6% | 3460 nM | 39.5% | 30.7% | 92.3% | 1.8% | 74% | – | – | –
2 | O=C(/C=C/c1c(Cl)c(O)c(O)c(O)c1Cl)c1c(Cl)cc(F)cc1Cl | 83.2% | 100% | 403 nM | 54.1% | 1.3% | 26.3% | 1.1% | 47.2% | – | – | –
3 | CC(=O)Oc1c(Cl)c(/C=C/C(=O)c2ccc(F)cc2)c(Cl)c(OC(C)=O)c1OC(C)=O | 85.2% | 93.8% | 247 nM | 37.4% | 1.1% | 54.1% | 1% | 97.5% | 111% | > 50000 nM | 62%
4 | O=C(/C=C/c1c(Cl)c(O)c(O)c(O)c1Cl)c1ccc(Cl)cc1Cl | 87.3% | 81% | 306 nM | 31.2% | 0.6% | 21.8% | 0.6% | 77.2% | – | – | –
5 | O=C(/C=C/c1c(Cl)c(O)c(O)c(O)c1Cl)c1cccc(-c2ccc(Cl)c(Cl)c2)c1 | 70.7% | 69.1% | > 5000 nM | 16.6% | 79.3% | 4.2% | – | 29.4% | – | – | –
6 | O=C(/C=C/c1c(Cl)c(O)c(O)c(O)c1Cl)c1c(Cl)cc(Cl)cc1Cl | 79% | 78.7% | 404 nM | 33.3% | 1.2% | 13% | 0.7% | 58.5% | – | – | –
7 | O=C(/C=C/c1c(Cl)c(O)c(O)c(O)c1Cl)c1cccs1 | 76.9% | 99.1% | 216 nM | 35.3% | -1.8% | 112% | -0.9% | 82.8% | – | – | –
8 | O=C(/C=C/c1c(Cl)c(O)c(O)c(O)c1Cl)c1ccco1 | 62.4% | 82% | 95.5 nM | 45.7% | -1.1% | 94.7% | -0.7% | 82.2% | 102% | – | 70.7%
9 | O=C(/C=C/c1c(Cl)c(O)c(O)c(O)c1Cl)c1ccc(Br)cc1 | 68.6% | 101% | 794 nM | 5.2% | 1% | 12.4% | -0.3% | 75.7% | – | – | –
10 | O=C(/C=C/c1c(Cl)c(O)c(O)c(O)c1Cl)c1ccc(C(F)(F)F)cc1 | 70.7% | 76.7% | 442 nM | 52% | 2% | 6.9% | 1.5% | 36.6% | 101% | – | 43.8%
11 | Oc1cc(CCCc2ccc(F)cc2)cc(O)c1O | -14.6% | 94% | 2400 nM | -45.7% | 18% | 93.6% | 2% | 108% | – | – | –
12 | O=C(/C=C/c1c(Cl)c(O)c(O)c(O)c1Cl)c1ccc(F)cc1F | 79% | 108% | 131 nM | 35.3% | 1.1% | 65.8% | 1.1% | 91.8% | – | – | –
13 | O=C(O)CCc1c(Cl)c(O)c(O)c(O)c1Cl | -6.2% | 130% | > 5000 nM | 20.8% | 76.4% | 89.7% | 1% | 80.8% | – | – | –
